# Laboratory results from PubChem BioAssay (NCI).
#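 The compound was tested at five concentrations on cells cultured in 96-well plates, with a 48-hour exposure period. The concentration for 50% growth inhibition is given as GI50. TGI denotes the concentration required for complete inhibition of growth.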
# Legend:
# Test in all cases: inhibition of tumour cell growth, NCI panel, 48 h
# OVCAR-3 ovarian = system: OVCAR-3 ovarian
# RPMI-8226 leukemia = system: RPMI-8226 leukemia
# A549 NSCLC = system: A549 NSCLC
# OVCAR-5 ovarian = system: OVCAR-5 ovarian
# TK-10 renal = system: TK-10 renal
# SK-MEL-2 melanoma = system: SK-MEL-2 melanoma
# SNB-75 CNS = system: SNB-75 CNS
# SNB-19 CNS = system: SNB-19 CNS
# SK-OV-3 ovarian = system: SK-OV-3 ovarian
# HCT-15 colon = system: HCT-15 colon
# HOP-92 NSCLC = system: HOP-92 NSCLC
# UO-31 renal = system: UO-31 renal
# OVCAR-4 ovarian = system: OVCAR-4 ovarian
# SK-MEL-28 melanoma = system: SK-MEL-28 melanoma
# SN12C renal = system: SN12C renal
# MOLT-4 leukemia = system: MOLT-4 leukemia
# MALME-3M melanoma = system: MALME-3M melanoma
# CAKI-1 renal = system: CAKI-1 renal
# U251 CNS = system: U251 CNS
# BT-549 breast = system: BT-549 breast
# MDA-MB-435 = system: MDA-MB-435
# MCF7 breast = system: MCF7 breast
# NCI-H226 lung = system: NCI-H226 lung
# SK-MEL-5 melanoma = system: SK-MEL-5 melanoma
# NCI-H522 lung = system: NCI-H522 lung
# PC-3 prostate = system: PC-3 prostate
# KM12 colon = system: KM12 colon
# NCI-H460 lung = system: NCI-H460 lung
# HT29 colon = system: HT29 colon
# EKVX NSCLC = system: EKVX NSCLC
# LOX IMVI melanoma = system: LOX IMVI melanoma
# SF-539 CNS = system: SF-539 CNS
# A498 renal = system: A498 renal
# T-47D breast = system: T-47D breast
# OVCAR-8 ovarian = system: OVCAR-8 ovarian
# COLO 205 colon = system: COLO 205 colon
# K-562 leukemia = system: K-562 leukemia
# RXF 393 renal = system: RXF 393 renal
# NCI-H23 lung = system: NCI-H23 lung
# M14 melanoma = system: M14 melanoma
# HOP-62 NSCLC = system: HOP-62 NSCLC
# HL-60(TB) leukemia = system: HL-60(TB) leukemia
# IGROV1 ovarian = system: IGROV1 ovarian
# MDA-MB-231 breast = system: MDA-MB-231 breast
# HS 578T breast = system: HS 578T breast
# SF-268 CNS = system: SF-268 CNS
# SF-295 CNS = system: SF-295 CNS
# SW-620 colon = system: SW-620 colon
# NCI/ADR-RES ovarian = system: NCI/ADR-RES ovarian
# UACC-62 melanoma = system: UACC-62 melanoma
# 786-0 renal = system: 786-0 renal
# HCT-116 colon = system: HCT-116 colon
# HCC-2998 colon = system: HCC-2998 colon
# ACHN renal = system: ACHN renal
# CCRF-CEM leukemia = system: CCRF-CEM leukemia
# DU-145 prostate = system: DU-145 prostate
# UACC-257 melanoma = system: UACC-257 melanoma
compound,measurement,setting,value
COc1cc(NCCCCCCCNC(C)C)c2nccc(C)c2c1,GI50,OVCAR-3 ovarian,2.96 µM
same,TGI,OVCAR-3 ovarian,8.89 µM
same,GI50,RPMI-8226 leukemia,4.79 µM
same,TGI,RPMI-8226 leukemia,20.4 µM
same,GI50,A549 NSCLC,18.8 µM
same,TGI,A549 NSCLC,38.3 µM
same,GI50,OVCAR-5 ovarian,15.4 µM
same,TGI,OVCAR-5 ovarian,29.7 µM
same,GI50,TK-10 renal,17.1 µM
same,TGI,TK-10 renal,32.7 µM
same,GI50,SK-MEL-2 melanoma,20 µM
same,TGI,SK-MEL-2 melanoma,38.3 µM
same,GI50,SNB-75 CNS,11.7 µM
same,TGI,SNB-75 CNS,24.3 µM
same,GI50,SNB-19 CNS,16 µM
same,TGI,SNB-19 CNS,30 µM
same,GI50,SK-OV-3 ovarian,13.7 µM
same,TGI,SK-OV-3 ovarian,27.1 µM
same,GI50,HCT-15 colon,12.2 µM
same,TGI,HCT-15 colon,27.3 µM
same,GI50,HOP-92 NSCLC,10.7 µM
same,TGI,HOP-92 NSCLC,23.8 µM
same,GI50,UO-31 renal,7.41 µM
same,TGI,UO-31 renal,23 µM
same,GI50,OVCAR-4 ovarian,4.08 µM
same,TGI,OVCAR-4 ovarian,15.6 µM
same,GI50,SK-MEL-28 melanoma,17.7 µM
same,TGI,SK-MEL-28 melanoma,32.1 µM
same,GI50,SN12C renal,12.2 µM
same,TGI,SN12C renal,25.7 µM
same,GI50,MOLT-4 leukemia,6.95 µM
same,TGI,MOLT-4 leukemia,23 µM
same,GI50,MALME-3M melanoma,17.3 µM
same,TGI,MALME-3M melanoma,34.8 µM
same,GI50,CAKI-1 renal,12.2 µM
same,TGI,CAKI-1 renal,25.6 µM
same,GI50,U251 CNS,11 µM
same,TGI,U251 CNS,24.2 µM
same,GI50,BT-549 breast,17.7 µM
same,TGI,BT-549 breast,33.5 µM
same,GI50,MDA-MB-435,6.95 µM
same,TGI,MDA-MB-435,21.2 µM
same,GI50,MCF7 breast,2.68 µM
same,TGI,MCF7 breast,10.8 µM
same,GI50,NCI-H226 lung,14.6 µM
same,TGI,NCI-H226 lung,34.3 µM
same,GI50,SK-MEL-5 melanoma,11.9 µM
same,TGI,SK-MEL-5 melanoma,24.6 µM
same,GI50,NCI-H522 lung,16 µM
same,TGI,NCI-H522 lung,35 µM
same,GI50,PC-3 prostate,10.5 µM
same,TGI,PC-3 prostate,23.9 µM
same,GI50,KM12 colon,13.7 µM
same,TGI,KM12 colon,27.9 µM
same,GI50,NCI-H460 lung,12.2 µM
same,TGI,NCI-H460 lung,27.5 µM
same,GI50,HT29 colon,4.29 µM
same,TGI,HT29 colon,16.4 µM
same,GI50,EKVX NSCLC,10.9 µM
same,TGI,EKVX NSCLC,26.5 µM
same,GI50,LOX IMVI melanoma,7.03 µM
same,TGI,LOX IMVI melanoma,21.5 µM
same,GI50,SF-539 CNS,13.7 µM
same,TGI,SF-539 CNS,26.8 µM
same,GI50,A498 renal,15.3 µM
same,TGI,A498 renal,29.6 µM
same,GI50,T-47D breast,5.44 µM
same,TGI,T-47D breast,19.8 µM
same,GI50,OVCAR-8 ovarian,15.2 µM
same,TGI,OVCAR-8 ovarian,33.5 µM
same,GI50,COLO 205 colon,2.34 µM
same,TGI,COLO 205 colon,6.54 µM
same,GI50,K-562 leukemia,3.46 µM
same,TGI,K-562 leukemia,14.6 µM
same,GI50,RXF 393 renal,15.4 µM
same,TGI,RXF 393 renal,33.7 µM
same,GI50,NCI-H23 lung,12.1 µM
same,TGI,NCI-H23 lung,26.2 µM
same,GI50,M14 melanoma,7.38 µM
same,TGI,M14 melanoma,20.7 µM
same,GI50,HOP-62 NSCLC,13.8 µM
same,TGI,HOP-62 NSCLC,27.6 µM
same,GI50,HL-60(TB) leukemia,6.94 µM
same,TGI,HL-60(TB) leukemia,23.9 µM
same,GI50,IGROV1 ovarian,13.3 µM
same,TGI,IGROV1 ovarian,34.5 µM
same,GI50,MDA-MB-231 breast,9.45 µM
same,TGI,MDA-MB-231 breast,22.4 µM
same,GI50,HS 578T breast,17.4 µM
same,TGI,HS 578T breast,39.7 µM
same,GI50,SF-268 CNS,16.3 µM
same,TGI,SF-268 CNS,31.9 µM
same,GI50,SF-295 CNS,14.1 µM
same,TGI,SF-295 CNS,29.6 µM
same,GI50,SW-620 colon,12.6 µM
same,TGI,SW-620 colon,28.6 µM
same,GI50,NCI/ADR-RES ovarian,14.3 µM
same,TGI,NCI/ADR-RES ovarian,28.4 µM
same,GI50,UACC-62 melanoma,4.88 µM
same,TGI,UACC-62 melanoma,17.6 µM
same,GI50,786-0 renal,14.8 µM
same,TGI,786-0 renal,28.6 µM
same,GI50,HCT-116 colon,6.95 µM
same,TGI,HCT-116 colon,19.9 µM
same,GI50,HCC-2998 colon,6.29 µM
same,TGI,HCC-2998 colon,19 µM
same,GI50,ACHN renal,14.2 µM
same,TGI,ACHN renal,27.8 µM
same,GI50,CCRF-CEM leukemia,12.1 µM
same,TGI,CCRF-CEM leukemia,33 µM
same,GI50,DU-145 prostate,17 µM
same,TGI,DU-145 prostate,31.4 µM
same,GI50,UACC-257 melanoma,18.2 µM
same,TGI,UACC-257 melanoma,34.2 µM
